≈ marks a conversion by molar mass, not a printed value. Read-outs that look alike come from different tables or passages of the source.
Legend:
Type in all cases: cell-based
[1] = test system: Candida albicans GC3066 ATCC Control; assay: Broth microdilution MIC; conditions: for In Vitro Activity of Tigecycline: Broth, C. albicans GC3066 ATCC Control; for MIC: Candida albicans, C. albicans GC3066 ATCC (Control), read-out: Minimal Inhibitory Concentration
Description: (§1) The process for preparing susceptibility test medium are the following steps: • a. Preparing Mueller Hinton Broth II medium by adding 22 grams powdered media to 1.0 liter distilled water; • b. Autoclaving (121° C., 15 psi, 15 minutes) and cooling the medium; • c. Adding Oxyrase® up to about 10% final volume and keeping at 35-37° C. in an incubator for 30 minutes; • d. Adding about 50 μL to each well of a 96 well microtiter plate; • e. Weighing drug and adding broth to drug to bring up to about (standard 128 μg/ml); • f. Adding 50 μL of the drug to the first column of the titer plate; • g. Diluting by two-fold serial diluting across or down the plate. • h. Preparing a Prompt™ inoculum at 10^8 CFU/ml; • i. Diluting inoculum 1:100 in the broth at […] in 9.9 ml (1:100) is 10^6 colony forming units (CFU) forming the adjusted inoculum; • j. Adding 50 μL of the adjusted inoculum to the wells of the microtiter plate; • k. Incubating the plates at 35-37° C. for 18-22 hours; and • l. Reading, with the unaided eye, the MIC.
(§2) The in vitro activities of tigecycline and control antibiotics were determined by the broth microdilution method as recommended by the NCCLS. (National Committee for Clinical Laboratory Standards, 2003. Methods for Dilution Antimicrobial Susceptibility Tests for Bacteria That Grow Aerobically; Approved Standards: M7-A6, Sixth ed, vol. 23., National Committee for Clinical Laboratory Standards Wayne, Pa.) was used for the standard procedures. MBH with 5% lysed horse blood was used for testing S. pneumoniae and Haemophilus Test Medium was used for testing H. influenzae. Oxyrase® (Oxyrase Inc, Mansfield, Ohio) was used according to the manufacturer's instructions by adding 1 ml of Oxyrase® to 50 ml of media. Media age studies were performed by preparing MHB in multiple flasks, then storing the media under various conditions. MICs were usually performed in duplicate on each day of testing. Storage under anaerobic conditions was conducted in an anaerobic chamber (MACS MG 1000, Don Whitley Scientific LTD). The pH of the media was determined by pH meter (Corning 430). A comparison of the in vitro activity of tigecycline by agar and broth dilution methodolgies with and without Oxyrase® against clinical isolates is shown in Table 1.

[2] = test system: Enterococcus faecalis GC4555 ATCC Control; assay: Broth microdilution MIC; conditions: for In Vitro Activity of Tigecycline: Broth, E. faecalis GC4555 ATCC Control; for MIC: Enterococcus faecalis, E. faecalis GC4555 (ATCC Control), read-out: Minimal Inhibitory Concentration
Description: as §1, §2

[3] = test system: Escherichia coli GC2203 ATCC Control; assay: Broth microdilution MIC; conditions: for In Vitro Activity of Tigecycline: Broth, E. coli GC2203 ATCC Control; for MIC: Escherichia coli, E. coli GC2203 (ATCC Control), read-out: Minimal Inhibitory Concentration
Description: as §1, §2

[4] = test system: Escherichia coli GC4559 parent GC4560; assay: Broth microdilution MIC; conditions: E. coli GC4559; for In Vitro Activity of Tigecycline: Broth; for MIC: Escherichia coli, read-out: Minimal Inhibitory Concentration
Description: as §1, §2

[5] = test system: Escherichia coli GC4560 IMP mutant; assay: Broth microdilution MIC; conditions: E. coli GC4560 IMP mutant
Description: as §1, §2

S. pneumoniae ATCC 49619 = assay: Broth microdilution MIC
Description: as §1, §2

[6] = test system: S. pyogenes GC4563 (Clinical); assay: Broth microdilution MIC; conditions: Streptococcus pyogenes, read-out: Minimal Inhibitory Concentration
Description: as §1, §2

[7] = test system: Staphylococcus aureus GC1079 tet(K); assay: Broth microdilution MIC
Description: as §1, §2

[8] = test system: Staphylococcus aureus GC2216 ATCC Control; assay: Broth microdilution MIC; conditions: for In Vitro Activity of Tigecycline: Broth, S. aureus GC2216 ATCC Control; for MIC: Staphylococcus aureus, S. aureus GC2216 (ATCC Control), read-out: Minimal Inhibitory Concentration
Description: as §1, §2

[9] = test system: Staphylococcus aureus GC6466 Clinical - tet(M); assay: Broth microdilution MIC; conditions: for In Vitro Activity of Tigecycline: Broth, S. aureus GC6466 tet(M); for MIC: Staphylococcus aureus, read-out: Minimal Inhibitory Concentration
Description: as §1, §2

[10] = test system: Enterococcus faecalis GC4555 ATCC Control; assay: Agar dilution in vitro activity; conditions: E. faecalis GC4555 ATCC Control
Description: as §2, with “Oxyrase® (Oxyrase Inc, Mansfield, Ohio) was used according to the manufacturer's instructions by adding 1 ml of Oxyrase® to 50 ml of media.” left out

[11] = test system: Staphylococcus aureus GC4536 Smith MP -In Vivo; assay: Agar dilution in vitro activity; conditions: S. aureus GC4536 Smith
Description: as §2, with “Oxyrase® (Oxyrase Inc, Mansfield, Ohio) was used according to the manufacturer's instructions by adding 1 ml of Oxyrase® to 50 ml of media.” left out

[12] = 336 h, Aged Media (two weeks at RT)
[13] = Table 8, Mueller Hinton Broth + Oxyrase, n = 240
[14] = Table 8, Mueller Hinton Broth, n = 320

SMILES: CN(C)c1cc(NC(=O)CNC(C)(C)C)c(O)c2c1C[C@H]1C[C@H]3[C@H](N(C)C)C(O)=C(C(N)=O)C(=O)[C@@]3(O)C(O)=C1C2=O [Tigecycline, tigecycline]
- In Vitro Activity of Tigecycline ([1]; Oxyrase (2%)): >16
- In Vitro Activity of Tigecycline ([1]; no Oxyrase): >16
- MIC [1, 12]: > 8 µg/mL
- MIC ([1]; Fresh Media): > 8 µg/mL
- In Vitro Activity of Tigecycline ([2]; Oxyrase (2%)): 0.06
- In Vitro Activity of Tigecycline ([2]; no Oxyrase): 0.50
- MIC [2, 12]: 0.25 µg/mL (≈ 0.427 µM)
- MIC ([2]; Fresh Media): 0.03 µg/mL (≈ 0.0512 µM)
- In Vitro Activity of Tigecycline ([3]; Oxyrase (2%)): 0.12
- In Vitro Activity of Tigecycline ([3]; no Oxyrase): 0.25
- MIC [3, 12]: 0.12 µg/mL (≈ 0.205 µM)
- MIC ([3]; Fresh Media): 0.03 µg/mL (≈ 0.0512 µM)
- In Vitro Activity of Tigecycline ([4]; Oxyrase (2%)): 0.12
- In Vitro Activity of Tigecycline ([4]; no Oxyrase): 0.50
- MIC [4, 12]: 0.12 µg/mL (≈ 0.205 µM)
- MIC ([4]; Fresh Media): 0.06 µg/mL (≈ 0.102 µM)
- In Vitro Activity of Tigecycline ([5]; Oxyrase (2%)): 0.03
- In Vitro Activity of Tigecycline ([5]; no Oxyrase): 0.25
- Number of Occurrences of MIC 0.004 ug/ml (S. pneumoniae ATCC 49619; [13]): 6
- Number of Occurrences of MIC 0.008 ug/ml (S. pneumoniae ATCC 49619; [13]): 73
- Number of Occurrences of MIC 0.016 ug/ml (S. pneumoniae ATCC 49619; [13]): 137
- Number of Occurrences of MIC 0.03 ug/ml (S. pneumoniae ATCC 49619; [13]): 21
- Number of Occurrences of MIC 0.06 ug/ml (S. pneumoniae ATCC 49619; [13]): 3
- Number of Occurrences of MIC 0.016 ug/ml (S. pneumoniae ATCC 49619; [14]): 1
- Number of Occurrences of MIC 0.03 ug/ml (S. pneumoniae ATCC 49619; [14]): 54
- Number of Occurrences of MIC 0.06 ug/ml (S. pneumoniae ATCC 49619; [14]): 188
- Number of Occurrences of MIC 0.12 ug/ml (S. pneumoniae ATCC 49619; [14]): 48
- Number of Occurrences of MIC 0.25 ug/ml (S. pneumoniae ATCC 49619; [14]): 29
- MIC [6, 12]: 0.03 µg/mL (≈ 0.0512 µM)
- MIC ([6]; Fresh Media): < 0.008 µg/mL
- In Vitro Activity of Tigecycline ([7]; Broth, no Oxyrase, S. aureus GC1079 tet(K)): 0.50
- MIC ([7]; Staphylococcus aureus, read-out: Minimal Inhibitory Concentration): 0.25 µg/mL (≈ 0.427 µM)
- In Vitro Activity of Tigecycline ([8]; Oxyrase (2%)): 0.12
- In Vitro Activity of Tigecycline ([8]; no Oxyrase): 0.50
- MIC [8, 12]: 0.25 µg/mL (≈ 0.427 µM)
- MIC ([8]; Fresh Media): 0.12 µg/mL (≈ 0.205 µM)
- In Vitro Activity of Tigecycline ([9]; Oxyrase (2%)): 0.12
- In Vitro Activity of Tigecycline ([9]; no Oxyrase): 0.50
- MIC ([9]; 336 h): 0.25 µg/mL (≈ 0.427 µM)
- MIC [9]: 0.12 µg/mL (≈ 0.205 µM)
- In Vitro Activity of Tigecycline ([10]; Oxyrase (10%)): 0.12
- In Vitro Activity of Tigecycline ([10]; no Oxyrase): 0.12
- In Vitro Activity of Tigecycline ([11]; Oxyrase (10%)): 0.12
- In Vitro Activity of Tigecycline ([11]; no Oxyrase): 0.25
